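Grown in 96-well plates, cells were treated for 48 hours with each compound at five concentrations. Insufficient inhibition: endpoint recorded as highest concentration tested. The concentration for 50% growth inhibition is given as GI50.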 Active and inactive are the calls of the source. No stated cut-off is given here; in the data, active = GI50 up to about 1.1 µM and inactive = higher.

Some test systems named below: SK-MEL-5; TK-10; SN12C; ACHN; DU-145; SF-295; M14; NCI-H522; SW-620; HT-29; CAKI-1; SK-OV-3; RXF 393; UACC-257; Hs-578T; MDA-MB-435; MCF7; MDA-N; PC-3; HL-60.
Common to all, as to assay: DTP human tumour cell line panel, 48 h

With `O=C(C1OC1c1ccc(F)cc1)C12CC3CC(CC(C3)C1)C2` (stereo not given), the GI50 was 16.5 µM (inactive) in the test on SK-MEL-5; 35.2 µM (inactive) in the test with TK-10; 16.4 µM (inactive) with SN12C; 30 µM (inactive) with ACHN; 34 µM (inactive) in the test on DU-145; 22.6 µM (inactive) with SF-295. In addition, the GI50 in the test with M14 was 15.7 µM (inactive); in the test on NCI-H522, 17.4 µM (inactive); with SW-620, 17.2 µM (inactive); in the test on HT-29, 20.2 µM (inactive); with CAKI-1, 25 µM (inactive); in the test with SK-OV-3, 31.1 µM (inactive). Moreover, the GI50 is 17.7 µM (inactive) in the test with RXF 393; 26.9 µM (inactive) in the test on UACC-257; 23.2 µM (inactive) in the test on Hs-578T; 11.9 µM (inactive) in the test on MDA-MB-435; 22.2 µM (inactive) in the test on MCF7; 12.7 µM (inactive) with MDA-N. Also, the GI50 is 30.7 µM (inactive) in the test with PC-3 and 4.04 µM (inactive) with HL-60.

Turning to `O=C(O)COc1cccc2ccccc(=O)c12`, the GI50 in the test on SK-MEL-5, in the test with TK-10, in the test with SN12C, in the test on ACHN, in the test with DU-145 and in the test with SF-295 was > 100 µM (inactive) each time. In addition, the GI50 in the test on M14, with NCI-H522, in the test with SW-620, with HT-29, with CAKI-1 and in the test with SK-OV-3 was > 100 µM (inactive) throughout. The GI50 with RXF 393, in the test with UACC-257, in the test on Hs-578T, with MDA-MB-435, in the test with MCF7 and in the test on MDA-N was > 100 µM (inactive) throughout. For the same molecule, the GI50 in the test on PC-3 and in the test on HL-60 was > 100 µM (inactive) each time.

Take `Cc1ccc(S(=O)(=O)NC2C(=O)c3ccccc3C(=O)C2n2ccnc2)cc1` (stereo not given): the GI50 was 48.5 µM (inactive) in the test with SK-MEL-5; > 100 µM (inactive) in the test on TK-10; 15 µM (inactive) with SN12C; > 100 µM (inactive) with ACHN; 17 µM (inactive) in the test with DU-145; > 100 µM (inactive) in the test with SF-295. Also, the GI50 in the test with M14 is > 100 µM (inactive); in the test on NCI-H522, < 0.01 µM (active); in the test with SW-620 it was > 100 µM (inactive); in the test with HT-29, > 100 µM (inactive); with CAKI-1, > 100 µM (inactive); with SK-OV-3, > 100 µM (inactive). Further, the GI50 in the test with RXF 393 is 31.2 µM (inactive); in the test on UACC-257 it was > 100 µM (inactive); in the test on Hs-578T, > 100 µM (inactive); in the test on MDA-MB-435, 17.9 µM (inactive); in the test with MCF7, > 100 µM (inactive); with MDA-N it was 15.4 µM (inactive). Also, the values for the GI50 with PC-3 and in the test with HL-60 were > 100 µM (inactive) and 18.6 µM (inactive), respectively.

On to `CC(=O)Nc1ccc(-c2cc(C(=O)O)c3cc4ccccc4cc3n2)cc1`, for which the GI50 with SK-MEL-5, in the test on TK-10, with SN12C, in the test on ACHN, with DU-145 and in the test on SF-295 was > 100 µM (inactive) each time. In addition, the GI50 in the test on M14, in the test on NCI-H522, in the test on SW-620, in the test with HT-29, with CAKI-1 and in the test with SK-OV-3 was > 100 µM (inactive) throughout. Further, the GI50 in the test on RXF 393, in the test on UACC-257, with Hs-578T, in the test with MDA-MB-435, in the test with MCF7 and with MDA-N was > 100 µM (inactive) throughout. The GI50 with PC-3 and in the test with HL-60 was > 100 µM (inactive) in each case.

For the molecule `OCCOCn1nncc1Cn1ncc2c(SCc3ccccc3)ncnc21`, the GI50 in the test with SK-MEL-5 is > 100 µM (inactive); in the test on TK-10, > 100 µM (inactive); with SN12C, 59.4 µM (inactive); in the test with ACHN, > 100 µM (inactive); in the test with DU-145, > 100 µM (inactive); with SF-295, > 100 µM (inactive). Further, the GI50 in the test with M14 was 59.3 µM (inactive); in the test on NCI-H522, 42.8 µM (inactive); with SW-620, 15.6 µM (inactive); in the test with HT-29 it was 37.7 µM (inactive); in the test with CAKI-1, > 100 µM (inactive); with SK-OV-3, > 100 µM (inactive). The GI50 with RXF 393 is > 100 µM (inactive); in the test on UACC-257, > 100 µM (inactive); in the test on Hs-578T it was > 100 µM (inactive); in the test with MDA-MB-435, 45.9 µM (inactive); with MCF7, 49.3 µM (inactive); in the test on MDA-N it was 54.7 µM (inactive). The GI50 was 94.8 µM (inactive) in the test with PC-3 and 16.5 µM (inactive) in the test with HL-60.

Take `COc1ccc(/C=C2\CCC(Cc3ccccc3)(CN(C)C)C2=O)cc1` (stereo not given): the GI50 with SK-MEL-5 is 20.8 µM (inactive); in the test with TK-10 it was > 100 µM (inactive); in the test with SN12C, 61.2 µM (inactive); in the test on ACHN it was 82 µM (inactive); in the test with DU-145, > 70.8 µM (inactive); in the test on SF-295, > 83.2 µM (inactive). Further, the GI50 in the test on M14 is 26.7 µM (inactive); in the test with NCI-H522 it was 31.8 µM (inactive); in the test with SW-620 it was 26.7 µM (inactive); in the test with HT-29, 32.9 µM (inactive); in the test with CAKI-1, 48 µM (inactive); in the test on SK-OV-3, > 100 µM (inactive). Besides, the GI50 in the test with RXF 393 is 35.1 µM (inactive); in the test on UACC-257, 25.2 µM (inactive); in the test on Hs-578T, > 91.2 µM (inactive); with MDA-MB-435, 32.1 µM (inactive); in the test on MCF7, 41.8 µM (inactive); in the test on MDA-N it was 38.3 µM (inactive). In addition, the GI50 in the test on PC-3 was 83.9 µM (inactive); in the test on HL-60, 19.7 µM (inactive).

As to `CC1(C)C2CCC1C(=O)C(C=O)C2` (stereo not given), the GI50 in the test with SK-MEL-5, in the test with TK-10, in the test with SN12C, in the test with ACHN, with DU-145 and with SF-295 was > 100 µM (inactive) in each case. In addition, the GI50 in the test on M14, in the test with NCI-H522, with SW-620, in the test with HT-29, with CAKI-1 and in the test on SK-OV-3 was > 100 µM (inactive) in each case. The GI50 in the test on RXF 393, in the test on UACC-257, with Hs-578T, in the test on MDA-MB-435, in the test with MCF7 and in the test on MDA-N was > 100 µM (inactive) in each case. The GI50 is > 100 µM (inactive) with PC-3 and 57.3 µM (inactive) with HL-60.

A word on the GI50: it is the concentration giving 50% growth inhibition.

The values are drawn from ChEMBL document CHEMBL1201862, “PubChem BioAssay data set” (2004).
